Assay results as given in patent publication US20030175438A1, “Treatments of solid substrates to enhance durability of treatments placed thereon” (priority 2002, published 2003).

Experiment: Bromphenol Blue (BPB) Extraction Method, spectrophotometric at 595 nm (modified CTM 0824), on treated fabric
Assay type: physicochemical
Settings: for BOILED IN WATER % EXTRACTION / CHANGE / NO BOIL % EXTRACTION: Table XII; for % BPB EXTRACTION CHANGE / % EXTRACTION CHANGE / % BPB Extraction (change on boiling) / EXTRACTION CHANGE: boiled vs not boiled; for Boiling Durability - % BPB Extraction: Boil 30 min., Table XIV; for Strike Rate - % BPB Extraction: No Boil, 0.25 grams of fabric, Table XIII

With `CCCCCCCCCCCCCCCCCC[N+](C)(C)CCC[Si](OC)(OC)OC.[Cl-]` [AMT, N, N-dimethyl-N-Octadecyl-3-(trimethoxysilyl)propanaminium chloride] the “BOILED IN WATER % EXTRACTION” value (130° C./5 minutes) was 27%, the CHANGE (130° C./5 minutes) was −34% and the “NO BOIL % EXTRACTION” value (130° C./5 minutes) was 61%. For the same compound, the CHANGE (130° C./30 minutes) was −41%, the “NO BOIL % EXTRACTION” value (130° C./30 minutes) was 68% and the “% Extraction @ 595 nm” value (ACRYLIC MODACRYLIC, boiled 30 minutes, Table IV) was 45%. For the same compound, the “% BPB EXTRACTION CHANGE” value (ACRYLIC MODACRYLIC, Table IV) was −46%, the “% Extraction @ 595 nm” value (ACRYLIC MODACRYLIC, not boiled, Table IV) was 91% and the “Boiling Durability % BPB EXTRACTION @ 595 nm” value (ACRYLIC, boiled 30 minutes, Table XVII) was 14%. The “% EXTRACTION CHANGE” value (ACRYLIC, Table XVII) was −42%, the “Boiling Durability % BPB EXTRACTION @ 595 nm” value (ACRYLIC, not boiled, Table XVII) was 56% and the “BOILED IN WATER % EXTRACTION” value (AIR DRIED) was 37%. For the same compound, the CHANGE (AIR DRIED) was −38%, the “NO BOIL % EXTRACTION” value (AIR DRIED) was 75% and the “% BPB EXTRACTION @ 595 nm” value (COTTON, boiled 30 minutes, Table III) was 95%. For the same compound, the “% Extraction @ 595 nm” value (COTTON, boiled 30 minutes, Table IV) was 94%, the “% Extraction @ 595 nm” value (COTTON, boiled 30 minutes, Table VI) was 94% and the “% BPB EXTRACTION @ 595 nm” value (COTTON, boiled 30 minutes, Table XV) was 92%. The “% EXTRACTION CHANGE” value (COTTON, Table III) was −1%, the “% EXTRACTION CHANGE” value (COTTON, Table IX) was −1% and the “% EXTRACTION CHANGE” value (COTTON, Table VII) was “+2%”. For the same compound, the “% EXTRACTION CHANGE” value (COTTON, Table XV) was −1%, the “% BPB EXTRACTION @ 595 nm” value (COTTON, boiled, Table IX) was 92% and the “% BPB EXTRACTION @ 595 nm” value (COTTON, boiled, Table VII) was 97%. For the same compound, the “% BPB EXTRACTION @ 595 nm” value (COTTON, not boiled, Table III) was 96%, the “% Extraction @ 595 nm” value (COTTON, not boiled, Table IV) was 95% and the “% BPB EXTRACTION @ 595 nm” value (COTTON, not boiled, Table IX) was 93%. The “% Extraction @ 595 nm” value (COTTON, not boiled, Table VI) was 94%, the “% BPB EXTRACTION @ 595 nm” value (COTTON, not boiled, Table VII) was 95% and the “% BPB EXTRACTION @ 595 nm” value (COTTON, not boiled, oven dried 130° C. 5 minutes, Table XV) was 93%. For the same compound, the “% Extraction @ 595 nm” value (NYLON, boiled 30 minutes, Table I) was 45%, the “% BPB EXTRACTION @ 595 nm” value (NYLON, boiled 30 minutes, Table III) was 20% and the “% Extraction @ 595 nm” value (NYLON, boiled 30 minutes, Table IV) was 45%. The “% BPB EXTRACTION @ 595 nm” value (NYLON, boiled 30 minutes, Table XV) was 30%, the “Boiling Durability % BPB EXTRACTION @ 595 nm” value (NYLON, boiled 30 minutes, Table XVII) was 26% and the “% BPB Extraction (change on boiling)” value (NYLON, Table I) was −37%. For the same compound, the “% EXTRACTION CHANGE” value (NYLON, Table III) was −57%, the “% BPB EXTRACTION CHANGE” value (NYLON, Table IV) was −25% and the “% EXTRACTION CHANGE” value (NYLON, Table IX) was −66%. The “EXTRACTION CHANGE” value (NYLON, Table VI) was −71%, the “% EXTRACTION CHANGE” value (NYLON, Table VII) was −69% and the “% EXTRACTION CHANGE” value (NYLON, Table XV) was −59%. The “% EXTRACTION CHANGE” value (NYLON, Table XVII) was −54%, the “% BPB EXTRACTION @ 595 nm” value (NYLON, boiled, Table VII) was 18% and the “% Extraction @ 595 nm” value (NYLON, not boiled, Table I) was 82%. The “% BPB EXTRACTION @ 595 nm” value (NYLON, not boiled, Table III) was 77%, the “% Extraction @ 595 nm” value (NYLON, not boiled, Table IV) was 70% and the “% Extraction @ 595 nm” value (NYLON, not boiled, Table VI) was 82%. For the same compound, the “% BPB EXTRACTION @ 595 nm” value (NYLON, not boiled, Table VII) was 87%, the “% BPB EXTRACTION @ 595 nm” value (NYLON, not boiled, oven dried 130° C. 5 minutes, Table XV) was 89% and the “Boiling Durability - % BPB Extraction” value (Nylon) was 14.42%. For the same compound, the “Boiling Durability - % BPB Extraction” value (Nylon, treatment at pH = 11) was 17.83%, the “Boiling Durability - % BPB Extraction” value (PET Staple) was 6.82% and the “Boiling Durability - % BPB Extraction” value (PET Staple, treatment at pH = 11) was 37.6%. The “Strike Rate - % BPB Extraction” value (PET Staple) was 17.36%, the “Boiling Durability - % BPB Extraction” value (PET, treatment at pH = 11) was 14.38% and the “Strike Rate - % BPB Extraction” value (PET) was 4.98%. For the same compound, the “% Extraction @ 595 nm” value (PET, boiled 30 minutes, Table I) was 18%, the “% BPB EXTRACTION @ 595 nm” value (PET, boiled 30 minutes, Table III) was 20% and the “% Extraction @ 595 nm” value (PET, boiled 30 minutes, Table VI) was 26%. The “Boiling Durability % BPB EXTRACTION @ 595 nm” value (PET, boiled 30 minutes, Table XVII) was 19%, the “% BPB Extraction (change on boiling)” value (PET, Table I) was −71% and the “% EXTRACTION CHANGE” value (PET, Table III) was −74%. For the same compound, the “% EXTRACTION CHANGE” value (PET, Table IX) was −73%, the “EXTRACTION CHANGE” value (PET, Table VI) was −63% and the “% EXTRACTION CHANGE” value (PET, Table VII) was −72%.
